# System: Acanthamoeba castellanii T4 isolate (ATCC 50370) trophozoites
# Experiment: CellTiter-Glo 2.0 trophocidal assay, A. castellanii
# Assay type: cell-based
# Details: Acanthamoeba castellanii, ATCC50370, 72 h, logarithmic trophozoites, 72 h, n = 3; read-out: Acanthamoeba castellanii EC50 ± SD
# From the text: This isolate was purchased from American Type Culture Collection (ATCC). […] For sub-culturing, cells were mechanically harvested to detach the cells from the culture flasks.
row,SMILES,EC50 [µM]
1,Nc1ccnc(-c2cc3c4c(n[nH]c4c2)Nc2ccccc2O3)n1 [Compound 1a],3.8 ± 0.46
2,CNc1nccc(-c2cc3c4c(n[nH]c4c2)Nc2ccccc2O3)n1 [Compound 1c],3.3 ± 0.31
3,CCOc1cc(-c2ccnc(N)n2)cc2c1c(N)nn2C [Compound 1d],12 ± 8.3
4,Cn1nc2c3c(cc(-c4ccnc(N)n4)cc31)Oc1ccccc1N2 [Compound 1e],> 20
5,N#Cc1cccc(-c2n[nH]c3ncc(-c4cnn(C5CCOCC5)c4)cc23)c1 [Compound 4a],11 ± 9
6,Cc1c(-c2cnn(C3CCOCC3)c2)cnc2[nH]cc(-c3cccc(C#N)c3)c12 [Compound 4b],11 ± 2.3
7,N#Cc1cccc(-c2c[nH]c3ncc(-c4cnn(C5CCNCC5)c4)cc23)c1 [Compound 4c],> 20
8,Cn1cc(Nc2nc(NCC(F)(F)F)c3nc[nH]c3n2)cn1 [Compound S21],> 20

# System: Naegleria fowleri (ATCC 30215) trophozoites
# Experiment: microbe, parasite or virus in culture
# Details: N. fowleri EC50 versus MRC5 cells
# Protocol: Trophozoites were routinely grown axenically at 34°C, 5% CO2, in Nelson’s complete medium (NCM) in non-vented 75 cm^2 tissue culture flasks (Olympus), until the cells were 80–90% confluent. For sub-culturing, cells were placed on ice to detach the cells from the culture flasks. […] Complete NCM media is prepared by the addition of 10% fetal bovine serum (FBS) and 100 U/mL penicillin, and 100 μg/mL streptomycin antibiotics.
# Trophozoites were routinely cultured as described above and only logarithmic trophozoites were used.
# All assays were incubated at each of the parasites’ representative growth temperatures, described above, for 72 h. At the 72-h time point, 25 μL of CellTiter-Glo 2.0 reagent was added to all wells of the 96-well plates by hand. The plates were protected from light and contents were mixed using an orbital shaker at 300 rpm at room temperature for 2 min to induce cell lysis. After shaking, the plates were equilibrated at room temperature for 10 min to stabilize the luminescent signal. The ATP luminescent signal (relative light units; RLUs) were measured […] with a SpectraMax I3X plate reader (Molecular Devices, Sunnyvale, CA, United States). […] Values reported are from a minimum of three biological replicates with standard deviation.
row,SMILES,selectivity versus MRC5 [fold]
1,CNc1nccc(-c2cc3c4c(n[nH]c4c2)Nc2ccccc2O3)n1 [Compound 1c],> 10

# Same assay, conditions: N. fowleri EC50 versus THP-1 cells
row,SMILES,selectivity versus THP-1 [fold]
1,CNc1nccc(-c2cc3c4c(n[nH]c4c2)Nc2ccccc2O3)n1 [Compound 1c],> 10

# Same assay, conditions: Naegleria fowleri, 72 h, read-out: Naegleria fowleri EC50 ± SD, logarithmic trophozoites, 72 h, n = 3 (converted)
row,SMILES,EC50 [µM]
1,Cn1cc(Nc2nc(NCC(F)(F)F)c3nc[nH]c3n2)cn1 [Compound S21],> 20

# Same assay, conditions: Naegleria fowleri, ATCC30215, 72 h, read-out: Naegleria fowleri EC50 ± SD, logarithmic trophozoites, 72 h, n = 3 (converted)
row,EC50 [µM],SMILES
1,≤ 14,Nc1ccnc(-c2cc3c4c(n[nH]c4c2)Nc2ccccc2O3)n1 [Compound 1a]
2,> 20,CCOc1cc(-c2ccnc(N)n2)cc2c1c(N)nn2C [Compound 1d]
3,> 20,Cn1nc2c3c(cc(-c4ccnc(N)n4)cc31)Oc1ccccc1N2 [Compound 1e]

# Same assay, conditions: read-out: Naegleria fowleri EC50 ± SD; logarithmic trophozoites, 72 h, n = 3
row,EC50 [µM],SMILES
1,8.5 ± 0.34,Nc1ccnc(-c2cc3c4c(n[nH]c4c2)Nc2ccccc2O3)n1 [Compound 1a]

# System: Balamuthia mandrillaris (CDC:V039; ATCC 50209) trophozoites
# Experiment: CellTiter-Glo 2.0 trophocidal assay, B. mandrillaris
# Assay type: cell-based
# Details: Balamuthia mandrillaris, ATCC50209, 72 h, logarithmic trophozoites, 72 h, n = 3; read-out: Balamuthia mandrillaris EC50 ± SD
# From the text: For sub-culturing, 0.25% Trypsin–EDTA (Gibco) cell detachment reagent was used to detach the cells from the culture flasks.
row,SMILES,EC50 [µM]
1,Nc1ccnc(-c2cc3c4c(n[nH]c4c2)Nc2ccccc2O3)n1 [Compound 1a],17 ± 3
2,CNc1nccc(-c2cc3c4c(n[nH]c4c2)Nc2ccccc2O3)n1 [Compound 1c],1.9 ± 1.3
3,CCOc1cc(-c2ccnc(N)n2)cc2c1c(N)nn2C [Compound 1d],9.49 ± 0.23
4,Cn1nc2c3c(cc(-c4ccnc(N)n4)cc31)Oc1ccccc1N2 [Compound 1e],14 ± 0.29
5,N#Cc1cccc(-c2n[nH]c3ncc(-c4cnn(C5CCOCC5)c4)cc23)c1 [Compound 4a],3.3 ± 0.62
6,Cc1c(-c2cnn(C3CCOCC3)c2)cnc2[nH]cc(-c3cccc(C#N)c3)c12 [Compound 4b],1 ± 0.12
7,Cn1cc(Nc2nc(NCC(F)(F)F)c3nc[nH]c3n2)cn1 [Compound S21],> 20

# Same assay, conditions: logarithmic trophozoites, 72 h, n = 3; read-out: Balamuthia mandrillaris EC50 ± SD
row,SMILES,EC50 [µM]
1,CCOc1cc(-c2ccnc(N)n2)cc2c1c(N)nn2C [Compound 1d],9.5 ± 0.23

# System: not listed separately
# Experiment: Human fetal lung fibroblast (MRC5) cell cytotoxicity assay (resazurin)
# Details: human, MRC5 cells (human fetal lung fibroblasts)
# Protocol: (§1) Intermediate plates were made as described, adding 95 μL of DMEM complete media to 5 μL of compound per well setting a 5% DMSO amount. Log-phase MRC5 cells were removed from a T-75 TC flask using TrypLE® Express (Thermo®) and dispersed by gentle pipetting. Cell density was adjusted to working concentration in prewarmed DMEM medium: 25,000 cells in 90 μL of culture were plated in 96-well transparent Nunclon plates and allowed to settle for 24 h at 37°C and 5% CO2. […] Plates were incubated for 48 h at 37°C and 5% CO2. At 4 h prior to fluorescence measurement, 20 μL of 500 μM resazurin solution was added.
# (§2) A four-parameter equation was used to fit the dose–response curves and determination of EC50 by SigmaPlot ® 13.0 software. Assays were performed in duplicate at least twice for positive compounds, to achieve a minimal […] per dose response.
row,SMILES,CC50 at 48 h [µM]
1,Nc1ccnc(-c2cc3c4c(n[nH]c4c2)Nc2ccccc2O3)n1 [Compound 1a],> 50
2,CNc1nccc(-c2cc3c4c(n[nH]c4c2)Nc2ccccc2O3)n1 [Compound 1c],> 50
3,CCOc1cc(-c2ccnc(N)n2)cc2c1c(N)nn2C [Compound 1d],> 50
4,Cn1nc2c3c(cc(-c4ccnc(N)n4)cc31)Oc1ccccc1N2 [Compound 1e],> 50
5,N#Cc1cccc(-c2n[nH]c3ncc(-c4cnn(C5CCOCC5)c4)cc23)c1 [Compound 4a],> 50
6,Cc1c(-c2cnn(C3CCOCC3)c2)cnc2[nH]cc(-c3cccc(C#N)c3)c12 [Compound 4b],> 50

# System: MRC5 cells
# Experiment: as above
# Details: Table S2; in µM
# Protocol: as §1, §2
row,SMILES,MRC5 TC50 ± Standard Deviation
1,Nc1ccnc(-c2cc3c4c(n[nH]c4c2)Nc2ccccc2O3)n1 [Compound 1a],> 50
2,CNc1nccc(-c2cc3c4c(n[nH]c4c2)Nc2ccccc2O3)n1 [Compound 1c],> 50
3,CCOc1cc(-c2ccnc(N)n2)cc2c1c(N)nn2C [Compound 1d],> 50
4,Cn1nc2c3c(cc(-c4ccnc(N)n4)cc31)Oc1ccccc1N2 [Compound 1e],> 50
5,N#Cc1cccc(-c2n[nH]c3ncc(-c4cnn(C5CCOCC5)c4)cc23)c1 [Compound 4a],> 50
6,Cc1c(-c2cnn(C3CCOCC3)c2)cnc2[nH]cc(-c3cccc(C#N)c3)c12 [Compound 4b],> 50
7,Cn1cc(Nc2nc(NCC(F)(F)F)c3nc[nH]c3n2)cn1 [Compound S21],50

# Same assay, conditions: up to 50 μM
row,SMILES,activity/toxicity against MRC5 cells (in words)
1,Cc1c(-c2cnn(C3CCOCC3)c2)cnc2[nH]cc(-c3cccc(C#N)c3)c12 [Compound 4b],not toxic

# System: not listed separately
# Experiment: Rat skeletal muscle cell line (L6) cytotoxicity assay (resazurin)
# Details: rat, L6 cells (rat skeletal muscle cell line)
# Protocol: (§3) One hundred microliters (100 μL) per well of culture medium containing the compounds and controls were added to L6 cells previously cultured (4 × 10^3 L6 cells per well). After 72 h at 37°C the medium was exchanged, and the viable cell number was determined by resazurin (Sigma–Aldrich) reduction. 20 μl of resazurin (1.1 mg/ml) was added to each well and incubated in the dark for 2 h at 37°C.
row,SMILES,CC50 at 72 h [µM]
1,Nc1ccnc(-c2cc3c4c(n[nH]c4c2)Nc2ccccc2O3)n1 [Compound 1a],32 ± 2.5
2,CNc1nccc(-c2cc3c4c(n[nH]c4c2)Nc2ccccc2O3)n1 [Compound 1c],6.3 ± 0.55
3,CCOc1cc(-c2ccnc(N)n2)cc2c1c(N)nn2C [Compound 1d],> 17
4,Cn1nc2c3c(cc(-c4ccnc(N)n4)cc31)Oc1ccccc1N2 [Compound 1e],> 50
5,N#Cc1cccc(-c2n[nH]c3ncc(-c4cnn(C5CCOCC5)c4)cc23)c1 [Compound 4a],2.8 ± 0.92
6,Cc1c(-c2cnn(C3CCOCC3)c2)cnc2[nH]cc(-c3cccc(C#N)c3)c12 [Compound 4b],11 ± 1.5

# System: L6 cells
# Experiment: as above
# Details: Table S2; in µM
# Protocol: as §3
row,SMILES,L6 TC50 ± Standard Deviation
1,Nc1ccnc(-c2cc3c4c(n[nH]c4c2)Nc2ccccc2O3)n1 [Compound 1a],32 ± 2.5
2,CNc1nccc(-c2cc3c4c(n[nH]c4c2)Nc2ccccc2O3)n1 [Compound 1c],6.3 ± 0.55
3,CCOc1cc(-c2ccnc(N)n2)cc2c1c(N)nn2C [Compound 1d],> 17 ± 0.052
4,Cn1nc2c3c(cc(-c4ccnc(N)n4)cc31)Oc1ccccc1N2 [Compound 1e],> 50
5,N#Cc1cccc(-c2n[nH]c3ncc(-c4cnn(C5CCOCC5)c4)cc23)c1 [Compound 4a],2.8 ± 0.92
6,Cc1c(-c2cnn(C3CCOCC3)c2)cnc2[nH]cc(-c3cccc(C#N)c3)c12 [Compound 4b],11 ± 1.5
7,Cn1cc(Nc2nc(NCC(F)(F)F)c3nc[nH]c3n2)cn1 [Compound S21],28 ± 1.4

# System: THP-1
# Experiment: Cytotoxicity assay in THP-1 (MTT)
# Assay type: cell-based
# Details: Table S2, 72 h, maximal concentration 50 μM
# Protocol: Cytotoxicity assay in TH P-1. Cellular toxicity of all compounds was determined using the colorimetric MTT-based assay after incubation at 37 °C for 72 h in the presence of increasing concentrations of compounds (final maximal concentration was 50 μM in 0.5% DMSO per well) [ 1] . The results are expressed […]
# cells. Assays were performed in duplicate at least twice to achieve a minimal n=3 per dose response. […]
# Cytotoxicity assay in THP-1. Cellular toxicity of all compounds was determined using the colorimetric MTT-based assay after incubation at 37 °C for 72 h in the presence of increasing concentrations of compounds (final maximal concentration was 50 μM in 0.5% DMSO per well). […] Assays were performed in duplicate at least twice to achieve a minimal n=3 per dose response.
row,SMILES,THP-1 TC50 ± Standard Deviation
1,Nc1ccnc(-c2cc3c4c(n[nH]c4c2)Nc2ccccc2O3)n1 [Compound 1a],> 50
2,CNc1nccc(-c2cc3c4c(n[nH]c4c2)Nc2ccccc2O3)n1 [Compound 1c],5.0 ± 0.11
3,CCOc1cc(-c2ccnc(N)n2)cc2c1c(N)nn2C [Compound 1d],> 50
4,Cn1nc2c3c(cc(-c4ccnc(N)n4)cc31)Oc1ccccc1N2 [Compound 1e],> 50
5,N#Cc1cccc(-c2n[nH]c3ncc(-c4cnn(C5CCOCC5)c4)cc23)c1 [Compound 4a],> 50
6,Cc1c(-c2cnn(C3CCOCC3)c2)cnc2[nH]cc(-c3cccc(C#N)c3)c12 [Compound 4b],> 50
7,Cn1cc(Nc2nc(NCC(F)(F)F)c3nc[nH]c3n2)cn1 [Compound S21],> 50

# System: not given
# Experiment: not given
# Details: 10 mg/kg I.P., 0.5 h; ref Klug et al., 2019; cited from earlier work
row,SMILES,blood/brain ratio
1,Cn1nc2c3c(cc(-c4ccnc(N)n4)cc31)Oc1ccccc1N2 [Compound 1e],2.4

# Same assay, conditions: 10 mg/kg I.P., 4 h; ref Klug et al., 2019; cited from earlier work
row,SMILES,blood/brain ratio
1,Cn1nc2c3c(cc(-c4ccnc(N)n4)cc31)Oc1ccccc1N2 [Compound 1e],2.1

# Same assay, conditions: ref Klug et al., 2021; cited from earlier work
row,SMILES,brain exposure in PK
1,N#Cc1cccc(-c2c[nH]c3ncc(-c4cnn(C5CCNCC5)c4)cc23)c1 [Compound 4c],negligible brain exposure

# From article PMC10206040, “Identification of novel anti-amoebic pharmacophores from kinase inhibitor chemotypes” (Frontiers in Microbiology, 2023)
